Results: the supplement of paper PMC10307832

Assays:
Assay in all cases: relative viability (nuclei count vs DMSO), 5 days (fraction); higher = more cells survive
NCI-H1734 = test system: NCI-H1734
Procedure, shortened: (§1)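 Values are medians from duplicate plates. Each reflects relative viability, defined as the nuclei count of treated wells over that of vehicle wells. Lung cancer cell lines in 1536-well plates were pin-tool dosed one day after seeding with one drug alone or with a fixed anchor-drug dose plus five library-drug doses (not always all listed) in √10 steps, then fixed, stained and imaged at 4× after 5 days.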

NCI-H520 = test system: NCI-H520
Procedure, shortened: as §1

PC-3 [JPC-3] = test system: PC-3 [JPC-3]
Procedure, shortened: as §1

HCC-827 = test system: HCC-827
Procedure, shortened: as §1

NCI-H661 = test system: NCI-H661
Procedure, shortened: as §1

NCI-H1355 = test system: NCI-H1355
Procedure, shortened: as §1

NCI-H1650 = test system: NCI-H1650
Procedure, shortened: as §1

RERF-LC-KJ = test system: RERF-LC-KJ
Procedure, shortened: as §1

COR-L23 = test system: COR-L23
Procedure, shortened: as §1

LK-2 = test system: LK-2
Procedure, shortened: as §1

EKVX = test system: EKVX
Procedure, shortened: as §1

H3255 = test system: H3255
Procedure, shortened: as §1

ABC-1 = test system: ABC-1
Procedure, shortened: as §1

NCI-H2228 = test system: NCI-H2228
Procedure, shortened: as §1

NCI-H2405 = test system: NCI-H2405
Procedure, shortened: as §1

SK-MES-1 = test system: SK-MES-1
Procedure, shortened: as §1

CAL-12T = test system: CAL-12T
Procedure, shortened: as §1

SW 1573 = test system: SW 1573
Procedure, shortened: as §1

PC-14 = test system: PC-14
Procedure, shortened: as §1

HCC-15 = test system: HCC-15
Procedure, shortened: as §1

NCI-H1651 = test system: NCI-H1651
Procedure, shortened: as §1

NCI-H1437 = test system: NCI-H1437
Procedure, shortened: as §1

NCI-H322M = test system: NCI-H322M
Procedure, shortened: as §1

## Clc1ccc(Nc2nnc(Cc3ccncc3)c3ccccc23)cc1 [Vatalanib] + O=C(CCCCCCC(=O)Nc1ccccc1)NO [Vorinostat] (partner 1 µM)
NCI-H1734; first compound 0.04 µM
  relative viability: 0.804
NCI-H1734; first compound 0.1265 µM
  relative viability: 0.812
NCI-H1734; first compound 0.4 µM
  relative viability: 0.937
NCI-H1734; first compound 1.265 µM
  relative viability: 0.761
NCI-H1734; first compound 4 µM
  relative viability: 0.775
NCI-H520; first compound 0.04 µM
  relative viability: 0.621
NCI-H520; first compound 0.1265 µM
  relative viability: 0.642
NCI-H520; first compound 0.4 µM
  relative viability: 0.817
NCI-H520; first compound 1.265 µM
  relative viability: 0.661
NCI-H520; first compound 4 µM
  relative viability: 0.718
PC-3 [JPC-3]; first compound 0.04 µM
  relative viability: 0.837
PC-3 [JPC-3]; first compound 0.1265 µM
  relative viability: 0.736
PC-3 [JPC-3]; first compound 0.4 µM
  relative viability: 0.721
PC-3 [JPC-3]; first compound 1.265 µM
  relative viability: 0.342
PC-3 [JPC-3]; first compound 4 µM
  relative viability: 0.688
HCC-827; first compound 0.04 µM
  relative viability: 0.767
HCC-827; first compound 0.1265 µM
  relative viability: 0.953
HCC-827; first compound 1.265 µM
  relative viability: 0.741
HCC-827; first compound 4 µM
  relative viability: 0.86
NCI-H661; first compound 0.04 µM
  relative viability: 0.8
NCI-H661; first compound 0.1265 µM
  relative viability: 0.872
NCI-H661; first compound 0.4 µM
  relative viability: 0.778
NCI-H661; first compound 1.265 µM
  relative viability: 0.775
NCI-H661; first compound 4 µM
  relative viability: 0.805
NCI-H1355; first compound 0.04 µM
  relative viability: 0.684
NCI-H1355; first compound 0.1265 µM
  relative viability: 0.691
NCI-H1355; first compound 0.4 µM
  relative viability: 0.727
NCI-H1355; first compound 1.265 µM
  relative viability: 0.57
NCI-H1355; first compound 4 µM
  relative viability: 0.581
NCI-H1650; first compound 0.04 µM
  relative viability: 0.555
NCI-H1650; first compound 0.1265 µM
  relative viability: 0.517
NCI-H1650; first compound 0.4 µM
  relative viability: 0.616
NCI-H1650; first compound 1.265 µM
  relative viability: 0.473
NCI-H1650; first compound 4 µM
  relative viability: 0.534
RERF-LC-KJ; first compound 0.04 µM
  relative viability: 0.714
RERF-LC-KJ; first compound 0.1265 µM
  relative viability: 0.747
RERF-LC-KJ; first compound 0.4 µM
  relative viability: 0.69
RERF-LC-KJ; first compound 1.265 µM
  relative viability: 0.665
RERF-LC-KJ; first compound 4 µM
  relative viability: 0.651
COR-L23; first compound 0.04 µM
  relative viability: 0.356
COR-L23; first compound 0.1265 µM
  relative viability: 0.553
COR-L23; first compound 0.4 µM
  relative viability: 0.499
COR-L23; first compound 1.265 µM
  relative viability: 0.417
COR-L23; first compound 4 µM
  relative viability: 0.469
LK-2; first compound 0.04 µM
  relative viability: 0.388
LK-2; first compound 0.1265 µM
  relative viability: 0.314
LK-2; first compound 0.4 µM
  relative viability: 0.328
LK-2; first compound 1.265 µM
  relative viability: 0.308
LK-2; first compound 4 µM
  relative viability: 0.222
EKVX; first compound 0.04 µM
  relative viability: 0.773
EKVX; first compound 0.1265 µM
  relative viability: 0.767
EKVX; first compound 0.4 µM
  relative viability: 0.831
EKVX; first compound 1.265 µM
  relative viability: 0.655
EKVX; first compound 4 µM
  relative viability: 0.665
H3255; first compound 0.04 µM
  relative viability: 0.744
H3255; first compound 0.1265 µM
  relative viability: 0.832
H3255; first compound 0.4 µM
  relative viability: 0.714
H3255; first compound 1.265 µM
  relative viability: 0.746
H3255; first compound 4 µM
  relative viability: 0.689
ABC-1; first compound 0.04 µM
  relative viability: 1.06
ABC-1; first compound 0.1265 µM
  relative viability: 0.863
ABC-1; first compound 0.4 µM
  relative viability: 1.01
ABC-1; first compound 4 µM
  relative viability: 1.39
NCI-H2228; first compound 0.04 µM
  relative viability: 0.795
NCI-H2228; first compound 0.1265 µM
  relative viability: 0.589
NCI-H2228; first compound 0.4 µM
  relative viability: 0.653
NCI-H2228; first compound 1.265 µM
  relative viability: 0.723
NCI-H2228; first compound 4 µM
  relative viability: 0.751
NCI-H2405; first compound 0.04 µM
  relative viability: 1.09
NCI-H2405; first compound 0.1265 µM
  relative viability: 0.938
NCI-H2405; first compound 0.4 µM
  relative viability: 1.06
NCI-H2405; first compound 4 µM
  relative viability: 0.976
SK-MES-1; first compound 0.04 µM
  relative viability: 1.13
SK-MES-1; first compound 0.1265 µM
  relative viability: 1.11
SK-MES-1; first compound 0.4 µM
  relative viability: 1.12
SK-MES-1; first compound 1.265 µM
  relative viability: 0.98
SK-MES-1; first compound 4 µM
  relative viability: 0.985
CAL-12T; first compound 0.04 µM
  relative viability: 0.872
CAL-12T; first compound 0.1265 µM
  relative viability: 0.714
CAL-12T; first compound 0.4 µM
  relative viability: 0.734
CAL-12T; first compound 1.265 µM
  relative viability: 0.737
CAL-12T; first compound 4 µM
  relative viability: 0.784
SW 1573; first compound 0.1265 µM
  relative viability: 0.812
SW 1573; first compound 0.4 µM
  relative viability: 1.4
SW 1573; first compound 1.265 µM
  relative viability: 0.839
SW 1573; first compound 4 µM
  relative viability: 0.624
PC-14; first compound 0.04 µM
  relative viability: 0.746
PC-14; first compound 0.1265 µM
  relative viability: 0.721
PC-14; first compound 0.4 µM
  relative viability: 0.801
PC-14; first compound 1.265 µM
  relative viability: 0.716
PC-14; first compound 4 µM
  relative viability: 0.62
HCC-15; first compound 0.04 µM
  relative viability: 0.853
HCC-15; first compound 0.1265 µM
  relative viability: 0.836
HCC-15; first compound 0.4 µM
  relative viability: 0.964
HCC-15; first compound 1.265 µM
  relative viability: 0.801
HCC-15; first compound 4 µM
  relative viability: 0.863
NCI-H1651; first compound 0.04 µM
  relative viability: 0.506
NCI-H1651; first compound 0.1265 µM
  relative viability: 0.606
NCI-H1651; first compound 0.4 µM
  relative viability: 0.594
NCI-H1651; first compound 1.265 µM
  relative viability: 0.524
NCI-H1651; first compound 4 µM
  relative viability: 0.557
NCI-H1437; first compound 0.04 µM
  relative viability: 0.836
NCI-H1437; first compound 0.1265 µM
  relative viability: 0.851
NCI-H1437; first compound 0.4 µM
  relative viability: 0.88
NCI-H1437; first compound 1.265 µM
  relative viability: 0.616
NCI-H1437; first compound 4 µM
  relative viability: 0.673
NCI-H322M; first compound 0.04 µM
  relative viability: 0.898
NCI-H322M; first compound 0.1265 µM
  relative viability: 0.867
NCI-H322M; first compound 0.4 µM
  relative viability: 0.825
NCI-H322M; first compound 4 µM
  relative viability: 0.899
